Test results as given in patent publication US11612604B2, “Methods of treating cancer with PLK4 inhibitors” (LUDWIG INSTITUTE FOR CANCER RESEARCH LTD, priority 2017, dated 2023).

The molecules below were run against T1, PLK4 (Homo sapiens, UniProt O00444) (assay: Activity (IC50) of the Table 1 compounds as PLK4 inhibitors). Settings: Table 1, IC50 class.
T1 sequence (O00444 1-970): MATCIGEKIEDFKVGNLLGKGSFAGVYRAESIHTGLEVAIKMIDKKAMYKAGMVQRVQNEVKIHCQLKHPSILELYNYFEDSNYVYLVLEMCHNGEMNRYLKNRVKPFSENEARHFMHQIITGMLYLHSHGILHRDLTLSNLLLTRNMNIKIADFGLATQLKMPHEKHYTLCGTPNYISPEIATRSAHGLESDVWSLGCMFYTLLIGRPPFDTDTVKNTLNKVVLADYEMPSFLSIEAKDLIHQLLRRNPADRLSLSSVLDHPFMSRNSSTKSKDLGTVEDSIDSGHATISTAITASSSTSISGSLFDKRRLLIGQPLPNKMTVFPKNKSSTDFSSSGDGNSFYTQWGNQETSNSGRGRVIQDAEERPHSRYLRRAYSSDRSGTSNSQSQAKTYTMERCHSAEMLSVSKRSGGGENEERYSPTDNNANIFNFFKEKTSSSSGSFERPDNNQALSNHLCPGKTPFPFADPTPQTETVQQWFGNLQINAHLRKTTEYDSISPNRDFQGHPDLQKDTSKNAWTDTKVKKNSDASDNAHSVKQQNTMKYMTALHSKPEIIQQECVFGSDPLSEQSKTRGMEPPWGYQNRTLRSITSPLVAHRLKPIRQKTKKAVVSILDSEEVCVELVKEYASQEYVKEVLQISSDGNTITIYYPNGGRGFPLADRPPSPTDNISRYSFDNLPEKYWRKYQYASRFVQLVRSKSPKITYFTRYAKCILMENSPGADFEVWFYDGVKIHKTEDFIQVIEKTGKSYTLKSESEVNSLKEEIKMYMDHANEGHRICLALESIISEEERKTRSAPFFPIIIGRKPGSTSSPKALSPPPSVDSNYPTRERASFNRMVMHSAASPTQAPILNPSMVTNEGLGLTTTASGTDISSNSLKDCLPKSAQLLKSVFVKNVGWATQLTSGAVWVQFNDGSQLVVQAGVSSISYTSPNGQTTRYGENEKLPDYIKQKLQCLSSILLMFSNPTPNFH
Format: biochemical

Row | SMILES | IC50 [µM]
1 | Cc1cc(Nc2nc(Sc3ccc(NC(=O)C4CC4)cc3)nc(C)c2C)n[nH]1 | < 0.1
2 | Cc1cc(Nc2nc(Sc3ccc(NC(=O)C4CCCC4)cc3)nc3c2C(C)CC3)n[nH]1 (stereo not shown) | < 0.1
3 | COc1c(Nc2cc(C)[nH]n2)nc(Sc2ccc(NC(=O)C3CC3)cc2)nc1N1CCN(C(C)C)CC1 | < 0.1
4 | COc1c(Nc2cc(C)[nH]n2)nc(Sc2ccc(NC(=O)C3CC3)cc2)nc1N1CCN(C(C)=O)CC1 | < 0.1
5 | CCN1CCN(c2nc(Sc3ccc(NC(=O)C4CC4)cc3)nc(Nc3cc(C)[nH]n3)c2OC)CC1 | < 0.1
6 | COCCN1CCN(c2nc(Sc3ccc(NC(=O)C4CC4)cc3)nc(Nc3cc(C)[nH]n3)c2OC)CC1 | < 0.1
7 | COc1c(Nc2cc(C)[nH]n2)nc(Sc2ccc(NC(=O)C3CC3)cc2)nc1N1CCN(CCN(C)C)CC1 | < 0.1
8 | COc1c(Nc2cc(C)[nH]n2)nc(Sc2ccc(S(=O)(=O)C(C)(C)c3cccc([N+](=O)[O-])c3F)cc2F)nc1N1CCC(OC)C1 (stereo not shown) | < 0.1
9 | COc1c(Nc2cc(C)[nH]n2)nc(Sc2ccc(S(=O)(=O)C(C)(C)c3cccc([N+](=O)[O-])c3F)cc2F)nc1N1CCC(CCO)CC1 | < 0.1
10 | COCCC1CCN(c2nc(Sc3ccc(S(=O)(=O)C(C)(C)c4cccc([N+](=O)[O-])c4F)cc3F)nc(Nc3cc(C)[nH]n3)c2OC)CC1 | < 0.1
11 | COc1c(Nc2cc(C)[nH]n2)nc(Sc2ccc(S(=O)(=O)C(C)(C)c3cccc([N+](=O)[O-])c3F)cc2F)nc1N1CCN(C(=O)CN(C)C)CC1 | < 0.1
12 | COc1c(Nc2cc(C)[nH]n2)nc(Sc2ccc(S(=O)(=O)C(C)(C)c3c(F)c(F)cc(Cl)c3F)cc2F)nc1N1CCOCC1 | < 0.1
13 | COc1c(Nc2cc(C)[nH]n2)nc(Sc2ccc(S(=O)(=O)C(C)(C)c3cccc([N+](=O)[O-])c3F)cc2F)nc1N1CCC(CCN)CC1 | < 0.1
14 | COc1c(Nc2cc(C)[nH]n2)nc(Sc2ccc(S(=O)(=O)Cc3c(F)c(F)c(F)c(F)c3F)cc2F)nc1N1CCOCC1 | < 0.1
15 | CNCCC1CCN(c2nc(Sc3ccc(S(=O)(=O)C(C)(C)c4cccc([N+](=O)[O-])c4F)cc3F)nc(Nc3cc(C)[nH]n3)c2OC)CC1 | < 0.1
16 | COc1c(Nc2cc(C)[nH]n2)nc(Sc2ccc(S(=O)(=O)C(C)(C)c3c(F)c(F)c(F)c(F)c3F)cc2F)nc1N1CCOCC1 | < 0.1
17 | COc1c(Nc2cc(C)[nH]n2)nc(Sc2ccc(S(=O)(=O)C(C)(C)C)cc2)nc1N1CCN(CCN(C)C)CC1 | < 0.1
18 | COc1c(Nc2cc(C)[nH]n2)nc(Sc2ccc(S(=O)(=O)C(C)(C)c3cccc([N+](=O)[O-])c3F)cc2F)nc1N1CCC(NC(C)=O)CC1 | < 0.1
19 | COc1c(Nc2cc(C)[nH]n2)nc(Sc2ccc(S(=O)(=O)C(C)(C)c3cccc([N+](=O)[O-])c3F)cc2F)nc1N1CC[C@H](NC(C)=O)C1 | < 0.1
20 | COc1c(Nc2cc(C)[nH]n2)nc(Sc2ccc(S(=O)(=O)C(C)(C)c3cccc([N+](=O)[O-])c3F)cc2F)nc1N1CCN(CC(=O)N(C)C)CC1 | < 0.1

Row | SMILES | IC50 [µM]
21 | COc1c(Nc2cc(C)[nH]n2)nc(Sc2ccc(S(=O)(=O)C(C)(C)c3cccc([N+](=O)[O-])c3F)cc2F)nc1N1CC[C@H](N(C)C)C1 | < 0.1
22 | COc1c(Nc2cc(C)[nH]n2)nc(Sc2ccc(S(=O)(=O)C(C)(C)c3cccc([N+](=O)[O-])c3F)cc2F)nc1N1CC[C@@H](N(C)C)C1 | < 0.1
23 | COc1c(Nc2cc(C)[nH]n2)nc(Sc2ccc(S(=O)(=O)C(C)(C)c3c(F)c(F)cc(F)c3F)cc2F)nc1N1CCC(NC(C)=O)CC1 | < 0.1
24 | COc1c(Nc2cc(C)[nH]n2)nc(Sc2ccc(S(=O)(=O)C(C)(C)c3c(F)c(F)cc(F)c3F)cc2F)nc1N1CC[C@H](N(C)C)C1 | < 0.1
25 | COc1c(Nc2cc(C)[nH]n2)nc(Sc2ccc(S(=O)(=O)C(C)(C)c3c(F)c(F)cc(F)c3F)cc2F)nc1N1CCC(CC(=O)N(C)C)CC1 | < 0.1
26 | COc1c(Nc2cc(C)[nH]n2)nc(Sc2ccc(S(=O)(=O)C(C)(C)c3c(F)c(F)cc(F)c3F)cc2F)nc1N1CC[C@@H](N(C)C)C1 | < 0.1
27 | COc1c(Nc2cc(C)[nH]n2)nc(Sc2ccc(S(=O)(=O)C(C)(C)c3c(F)c(F)c(F)c(F)c3F)cc2F)nc1N1CCC(N(C)C)CC1 | < 0.1
28 | COc1c(Nc2cc(C)[nH]n2)nc(Sc2ccc(S(=O)(=O)C(C)(C)c3c(F)c(F)c(F)c(F)c3F)cc2F)nc1N1CCC(CCN(C)C)CC1 | < 0.1
29 | COc1c(Nc2cc(C)[nH]n2)nc(Sc2ccc(S(=O)(=O)C(C)(C)c3cccc([N+](=O)[O-])c3F)cc2F)nc1N1CCC(O)C1 (stereo not shown) | < 0.1
30 | COc1c(Nc2cc(C)[nH]n2)nc(Sc2ccc(S(=O)(=O)C(C)(C)c3c(F)c(F)c(F)c(F)c3F)cc2F)nc1N1CCN(CCN(C)C)CC1 | < 0.1
31 | COc1c(Nc2cc(C)[nH]n2)nc(Sc2ccc(S(=O)(=O)C(C)(C)c3c(F)c(F)cc(F)c3F)cc2F)nc1N1CCC(OC(C)=O)CC1 | < 0.1
32 | COc1ccc(CS(=O)(=O)c2ccc(Sc3nc(Nc4cc(C)[nH]n4)c(OC)c(N4CCOCC4)n3)c(F)c2)cc1 | < 0.1
33 | COc1ccc(CS(=O)(=O)c2ccc(Sc3nc(Nc4cc(C)[nH]n4)c(OC)c(N4CCCCC4)n3)c(F)c2)cc1 | < 0.1
34 | COc1c(Nc2cc(C)[nH]n2)nc(Sc2ccc(S(=O)(=O)C(C)(C)c3cccc([N+](=O)[O-])c3F)cc2F)nc1N1CCC(N(C)C(C)=O)CC1 | < 0.1
35 | COc1c(Nc2cc(C)[nH]n2)nc(Sc2ccc(S(=O)(=O)C(C)(C)c3c(F)c(F)cc(F)c3F)cc2F)nc1N1CCC(N(C)C(C)=O)CC1 | < 0.1
36 | COc1ccc(CS(=O)(=O)c2ccc(Sc3nc(Nc4cc(C)[nH]n4)c(OC)c(N4CCOCC4)n3)cc2)cc1 | < 0.1
37 | COc1ccc(CS(=O)(=O)c2ccc(Sc3nc(Nc4cc(C)[nH]n4)c(OC)c(N4CCCCC4)n3)cc2)cc1 | < 0.1
38 | COc1c(Nc2cc(C)[nH]n2)nc(Sc2ccc(S(=O)(=O)C(C)(C)c3c(F)c(F)cc([N+](=O)[O-])c3F)cc2F)nc1N1CCN(CCN(C)C)CC1 | < 0.1
39 | COc1c(Nc2cc[nH]n2)nc(Sc2ccc(S(=O)(=O)Cc3cccc([N+](=O)[O-])c3F)cc2F)nc1N1CCOCC1 | < 0.1
40 | COc1c(Nc2cc[nH]n2)nc(Sc2ccc(S(=O)(=O)Cc3cccc([N+](=O)[O-])c3F)cc2F)nc1N1CCCCC1 | < 0.1

Row | SMILES | IC50 [µM]
41 | CNC(=O)CC1CCN(c2nc(Sc3ccc(S(=O)(=O)C(C)(C)c4cccc([N+](=O)[O-])c4)cc3F)nc(Nc3cc(C)[nH]n3)c2OC)CC1 | < 0.1
42 | COc1c(Nc2cc(C)[nH]n2)nc(Sc2ccc(S(=O)(=O)C(C)(C)c3cccc([N+](=O)[O-])c3F)cc2F)nc1N1CCC(N)CC1 | < 0.1
43 | COc1c(Nc2cc(C)[nH]n2)nc(Sc2ccc(S(=O)(=O)C(C)(C)c3cccc([N+](=O)[O-])c3F)cc2F)nc1N1CCC(CC(N)=O)CC1 | < 0.1
44 | CNC1CCN(c2nc(Sc3ccc(S(=O)(=O)C(C)(C)c4cccc([N+](=O)[O-])c4F)cc3F)nc(Nc3cc(C)[nH]n3)c2OC)CC1 | < 0.1
45 | COc1c(Nc2cc(C)[nH]n2)nc(Sc2ccc(S(=O)(=O)C(C)(C)c3cccnc3)cc2)nc1N1CCN(CCN(C)C)CC1 | < 0.1
46 | COc1c(Nc2cc(C)[nH]n2)nc(Sc2ccc(S(=O)(=O)C(C)(C)c3cccs3)cc2)nc1N1CCN(CCN(C)C)CC1 | < 0.1
47 | COc1c(Nc2cc(C)[nH]n2)nc(Sc2ccc(S(=O)(=O)C(C)(C)C3CC3)cc2)nc1N1CCN(CCN(C)C)CC1 | < 0.1
48 | COc1c(Nc2cc(C)[nH]n2)nc(Sc2ccc(S(=O)(=O)Cc3cccc([N+](=O)[O-])c3F)cc2F)nc1N1CCNCC1 | < 0.1
49 | COc1c(Nc2cc(C)[nH]n2)nc(Sc2ccc(S(=O)(=O)C(C)(C)c3cccc([N+](=O)[O-])c3)cc2F)nc1N1CCC(CCNC(C)C(F)(F)F)CC1 (stereo not shown) | < 0.1
50 | COc1c(Nc2cc(C)[nH]n2)nc(Sc2ccc(S(=O)(=O)C(C)(C)c3ccccn3)cc2)nc1N1CCN(CCN(C)C)CC1 | < 0.1
51 | COc1c(Nc2cc(C)[nH]n2)nc(Sc2ccc(S(=O)(=O)C(C)(C)c3nccs3)cc2)nc1N1CCN(CCN(C)C)CC1 | < 0.1
52 | COc1c(Nc2cc(C)[nH]n2)nc(Sc2ccc(S(=O)(=O)C(C)(C)c3cnccn3)cc2)nc1N1CCN(CCN(C)C)CC1 | < 0.1
53 | COc1c(Nc2cc(C)[nH]n2)nc(Sc2ccc(S(=O)(=O)C(C)(C)c3ccncn3)cc2)nc1N1CCN(CCN(C)C)CC1 | < 0.1
54 | COc1c(Nc2cc(C)[nH]n2)nc(Sc2ccc(S(=O)(=O)Cc3ccccc3)cc2)nc1N1CCN(Cc2ccncc2)CC1 | < 0.1
55 | COc1c(Nc2cc(C)[nH]n2)nc(Sc2ccc(S(=O)(=O)Cc3cccc(C#N)c3)cc2)nc1N1CCN(CCN(C)C)CC1 | < 0.1
56 | COc1ccccc1CS(=O)(=O)c1ccc(Sc2nc(Nc3cc(C)[nH]n3)c(OC)c(N3CCN(CCN(C)C)CC3)n2)cc1 | < 0.1
57 | COc1c(Nc2cc(C)[nH]n2)nc(Sc2ccc(S(=O)(=O)Cc3cccc(C)c3)cc2)nc1N1CCN(CCN(C)C)CC1 | < 0.1
58 | COc1cccc(CS(=O)(=O)c2ccc(Sc3nc(Nc4cc(C)[nH]n4)c(OC)c(N4CCN(CCN(C)C)CC4)n3)cc2)c1 | < 0.1
